Source: patent US9186339B2, “Use of transcriptome modifying agents and chemotherapy or radiotherapy against cancer” (UNIVERSIDAD NACIONAL AUTONOMA DE MEXICO, priority 2005, dated 2015)
Read-outs that look alike come from different tables or passages of the source.

Legend:
[1] = 50-150 mg/day for 10 days, cancer patients
Procedure: (§1) Whit this goal, hydralazine was administered to groups of 4 patients each group at doses of: 1) 50 mg/day, 2) 75 mg/day, 3) 100 mg/day and 4) 150 mg/day for 10 days. Biopsies and peripheral blood samples were taken before commencing treatment and at day 11. The state of pre- and post-treatment methylation was analyzed for the promoters of the following genes: APC, MGMT; ER, GSTP1, DAPK, RARβ, FHIT and p16 as well as the state of expression of their messengers by RT-PCR. Also the state of methylation of the gene subject to parental unactivation H19, and a genomic clone which normally is found methylated was evaluated, as well as the global content of methylated citokines in the genome. The toxicity to hydralazine was evaluated using the escale from the U.S. National Cancer Institute (CTC NCI). […] FIG. 3A.

[2] = test system: expression of suppressive genes (APC, MGMT, ER, GSTP1, DAPK, RARβ, FHIT, p16)
Procedure: as §1

[3] = test system: promoters of APC, MGMT, ER, GSTP1, DAPK, RARβ, FHIT and p16; settings: post-treatment biopsies
Procedure: as §1

[4] = Clinical study of magnesium valproate: toxicity; assay type: in vivo, human; settings: 20, 30, 40 mg/Kg for 5 days
Procedure: (§2) Twelve patients with this cancer of recent diagnosis and without previous treatment received the following doses of magnesium valproate in groups of 4 patients. Group 1, 20 mg/Kg, Group 2, 30 mg/kg, Group 3, 40 mg/Kg. A biopsy of the tumor and a blood sample were taken before the treatment and on the following day (day 6) since valproic acid or a salt thereof such as magnesium valproate was administered for 5 days in divided doses every 8 hours. The hyperacetylation of Histone H3 was analyzed in the samples and histone H4 in the tumor by Western blot, as well as the activity of histone deacetylases in nuclear extracts of the tumor using a calorimetric essay, as well as the levels of valproic acid in serum. The level of expression of the genes p21 and CAR was also analyzed in the pos-treatment biopsies. The toxicity of the treatment was recorded at the end of the cycle.

[5] = test system: Histone H3 and histone H4; experiment: Clinical study of magnesium valproate: histone hyperacetylation in tumor by Western blot; assay type: in vivo, human; settings: of 12 patients, after treatment
Procedure: as §2

[6] = test system: histone deacetylases; experiment: Clinical study of magnesium valproate: histone deacetylase activity in nuclear extracts of the tumor; assay type: in vivo, human
Procedure: as §2

[7] = test system: p21; experiment: Clinical study of magnesium valproate: gene expression in post-treatment biopsies; assay type: in vivo, human; settings: FIG. 8
Procedure: as §2

[8] = test system: HeLa cells; experiment: MTT cell viability assay, chemotherapeutic agent plus composition; assay type: cell-based; settings: for viability reduction: chemotherapeutic agent plus hydralazine 10 μM and magnesium valproate 1 mM, viability on day 4
Procedure: With this objective, three drugs were selected that are representative of his class: alkylating agents as cisplatin, antibiotic as doxorrubicin, antimetabolite as gemcitabine. The cells were plated in 96-well plates (Falcon Becton Dickinson, Franklin Lakes, N.J.) at a density of 1.5-2.5×10^3 cells/well in 0.1 ml of complete media. The following day the cells were treated with the chemotherapeutic agent at the concentration indicated in FIGS. 2A, 2B y 2C plus hydralazine at 10 μM and valproic acid or magnesium valproate at 1 mM. On the next day, the media containing the drugs was removed and fresh hydralazine and magnesium valproate were added at same concentration for another additional 48 hours. On the following day (day 4) cell viability was measured using an MTT assay. Briefly, 50 μl of MTT reagent in phosphate buffered solution were added to each well. […] Thereafter it is read spectrophotometrically on a ELISA reader. All the assays were carried out in triplicate. The cytotoxic effect of each treatment was expressed in the percentage of cell viability relative to the untreated control (% control) which is defined as [(A570nm treated cells)/A570nm untreated cells)]×100.

[9] = test system: sarcoma HT1080 cellular line tumors; experiment: HT1080 sarcoma model in immunodeficient mice; assay type: in vivo, athymic mice
Procedure: Once the capacity of hydralazine and valproic acid or a salt thereof such as magnesium valproate to alter the expression génica in the patients' tumors was assessed, we investigate if the composition of these transcriptome modifying agents increased the antitumoral effect of the chemotherapy in a model of sarcoma in immunodeficient mice. With this goal, groups of 6 female athymic mice were studied, which were injected with 6 million cells of the sarcoma HT1080 cellular line. Once the tumors were formed, the animals were treated systemically with hydralazine and valproic acid or a salt thereof such as magnesium valproate with doses equivalent to those used in the patients. The groups of treatment were as follows: 1) control treated with saline solution, 2) treated weekly with adriamycin, 3) treated with the composition of hydralazine and valproato for 7 days followed by the same weekly treatment with adriamycin. […] This phenomenon occurs commonly in the treatment of the cancer in the patients, where often an entire or almost entire antitumoral response is observed to relapse later. The composition of the present invention therefore might induce extended or complete remissions of the tumors.

Structure (SMILES): NNc1nncc2ccccc12 [hydralazine, 1-hydrazinophthalazine]
- tolerability [1]: well tolerated
- undesirable effects registered [1]: nausea, sickness, fatigue, headache and palpitations
- effect on genic expression in patients with cancer ([2]; dose between 50 and 150 mg): effective to alter the genic expression
- cases demethylated post-treatment that re-expressed the gene ([2]; of the 12 informative cases): 9 cases
- percentage of demethylation ([3]; hydralazine 50 mg/day for 10 days): 40%
- percentage of demethylation ([3]; hydralazine 75 mg/day for 10 days): 52%
- percentage of demethylation ([3]; hydralazine 100 mg/day for 10 days): 43%
- percentage of demethylation ([3]; hydralazine 150 mg/day for 10 days): 32%
- frequency of demethylation, p16 ([3]; 2 out of 3): 67%
- frequency of demethylation, MGMT ([3]; 2 out of 13 samples): 15%

Structure (SMILES): CCCC(CCC)C(=O)O [magnesium valproate, 2-propylpentanoic acid]
- tolerability [4]: well tolerated
- patients with Grade 2 drowsiness ([4]; of 12 patients): nine
- patients with hyperacetylation in both histones [5]: six
- patients with hyperacetylation of H3 [5]: nine
- patients with hyperacetylation of H4 [5]: seven
- patients with no changes in activity of histone deacetylases [6]: two
- patients in whom activity of histone deacetylases diminished ([6]; two-tailed t test p<0.0264): 8 patients
- expression of p21 [7]: increases its expression

Structure (SMILES): N.N.[Cl][Pt][Cl] [cisplatin]
- viability reduction [8]: 37%
- IC50 ([8]; read-out: inhibitory concentration 50 (IC50)): 12 µM

Structure (SMILES): Nc1ccn([C@@H]2O[C@H](CO)[C@@H](O)C2(F)F)c(=O)n1 [gemcitabine]
- viability reduction [8]: 37%

Structure (SMILES): COc1cccc2c1C(=O)c1c(O)c3c(c(O)c1C2=O)C[C@@](O)(C(=O)CO)C[C@@H]3O[C@H]1C[C@H](N)[C@H](O)[C@H](C)O1 [adriamycin]
- viability reduction [8]: 27%
- tumor re-growth after 3 weeks ([9]; weekly adriamycin alone, or composition for 7 days followed by weekly adriamycin, FIG. 9): the tumors grow again
- antitumoral effect ([9]; weekly adriamycin, 3 weeks after treatment): almost complete antitumoral effect
